“And” between values parts separate entries of the source, which are not always exact repeats. Identical values can stand only once.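 The compound was tested at five concentrations on cells cultured in 96-well plates, with a 48-hour exposure period. At the GI50, growth is halved. TGI is the concentration that stops growth completely.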
What was measured:
Experiment in all cases: DTP human tumour cell line panel, 48 h
IGROV1 ovarian = tested on: IGROV1 ovarian
HOP-92 NSCLC = tested on: HOP-92 NSCLC
EKVX NSCLC = tested on: EKVX NSCLC
ACHN renal = tested on: ACHN renal
SNB-75 CNS = tested on: SNB-75 CNS
MOLT-4 leukemia = tested on: MOLT-4 leukemia
KM12 colon = tested on: KM12 colon
SR leukemia = tested on: SR leukemia
MDA-MB-435 = tested on: MDA-MB-435
NCI-H460 lung = tested on: NCI-H460 lung

SMILES	GI50 (IGROV1 ovarian)	TGI (IGROV1 ovarian)	GI50 (HOP-92 NSCLC)	TGI (HOP-92 NSCLC)	GI50 (EKVX NSCLC)	TGI (EKVX NSCLC) [µM]	GI50 (ACHN renal)	TGI (ACHN renal) [µM]	GI50 (SNB-75 CNS)	TGI (SNB-75 CNS)	GI50 (MOLT-4 leukemia)	TGI (MOLT-4 leukemia) [µM]	GI50 (KM12 colon)	TGI (KM12 colon)	GI50 (SR leukemia)	TGI (SR leukemia)	GI50 (MDA-MB-435)	TGI (MDA-MB-435)	GI50 (NCI-H460 lung)	TGI (NCI-H460 lung) [µM]
Cc1ccsc1-c1ccc2c(c1)COC2(CCCN(C)C)c1ccc(F)cc1 (centres undefined)	1.87 µM	5.86 µM	1.76 µM	7.44 µM	4.64 µM	18.5	3.48 µM	13.3	1.72 µM	6.82 µM	2.7 µM	8.43	3.13 µM	10.9 µM	2.29 µM	7.3 µM	1.68 µM	3.24 µM	1.77 µM	3.49
CNC(=O)c1cccc(C#Cc2cncnc2Nc2ccc(OCc3cccc(F)c3)c(Cl)c2)c1	4.66 µM	> 25 µM	3.31 µM	11 µM	1.22 µM	> 25	4.18 µM	24.9	5.26 µM	14.4 µM	> 25 µM	> 25	7.22 µM	> 19.4 µM	24.2 µM	> 25 µM	7.02 µM	> 25 µM	5.04 µM	12.9
CC(C)C(=O)c1c(C(F)(F)F)n([O-])c2ccccc2[n+]1=O	1.11 µM	–	0.466 µM	1.62 µM	0.876 µM	2.57	2.3 µM	–	15.2 µM	> 42.7 µM	1.27 µM	9.65	0.563 µM	1.65 µM	< 0.0197 µM	–	1.07 µM	3.45 µM	1.72 µM	5.56
Cc1ccccc1C(C(=O)NC1CCCCC1)N(C(=O)CNc1ncccc1F)c1cccc(F)c1 (centres undefined)	> 80 µM	> 100 µM	13.9 µM	62.4 µM	> 100 µM	> 100	49.8 µM	> 100	6.14 µM	24.6 µM	> 100 µM	> 100	> 100 µM	> 100 µM	> 100 µM	> 100 µM	> 100 µM	> 100 µM	> 100 µM	> 100
CCCN(CCC)c1ccc(C=O)c(C)c1	61 µM	> 100 µM	16.4 µM	64.7 µM	24.2 µM	> 100	49.4 µM	> 100	22.3 µM	97.7 µM	39.8 µM	> 100	44.7 µM	> 100 µM	40.3 µM	> 100 µM	32.6 µM	> 100 µM	46.5 µM	> 100
Cc1sc2c(c1C)C(c1ccc(Cl)cc1)=N[C@@H](CC(=O)NCCCN1CCN(C)CC1)c1nnc(C)n1-2	0.618 µM	> 100 µM	0.032 µM	> 25.2 µM	> 34.6 µM	> 100	17.1 µM	> 100	< 0.0106 µM	0.16 µM	22.2 µM	> 100	19.6 µM	> 100 µM	0.108 µM	> 100 µM	0.621 µM	> 100 µM	> 63.2 µM	> 100
COC(=O)[C@@H](C)C[C@H](Cc1ccccc1)NC(=O)c1csc([C@@H](C[C@H](C(C)C)N(C)C(=O)[C@@H](NC(=O)[C@H]2CCCN2C)C2CC2)OC(C)=O)n1	0.000823 µM and 0.0025 µM	> 25 µM	0.000286 µM	–	0.00833 µM	–	0.00419 µM and 0.0025 µM	> 25	0.0025 µM	> 25 µM	0.00316 µM and 0.0025 µM	> 25	0.00222 µM and 0.0025 µM	> 25 µM	–	> 25 µM	< 0.0025 µM	0.00049 µM and < 0.0025 µM	0.00238 µM and 0.0025 µM	> 25
CC1Cc2ccccc2N1C(=O)Cc1nc(N2CCOCC2)cc(=O)[nH]1 (centres undefined)	3.09 µM and 9.02 µM	22.8 µM and 52.6 µM	0.915 µM and 3.04 µM	46.1 µM and > 75.2 µM	7.06 µM and 17.1 µM	> 100	3.94 µM and 8.73 µM	> 100	0.188 µM and 1.16 µM	> 100 µM and 23.3 µM	15.8 µM and 27.5 µM	> 100	20.2 µM and 47.6 µM	55.1 µM and > 100 µM	22.6 µM and 24.4 µM	97.3 µM and > 100 µM	20.9 µM and 27.7 µM	> 100 µM	17.2 µM and 32 µM	> 100
CC/C=C\C[C@H](O)C/C=C1/C(=O)C=C[C@@H]1C/C=C\CCCCO	3.22 µM	12 µM	11.7 µM	25 µM	4.22 µM	18	1.8 µM	3.66	11 µM	38.4 µM	2.65 µM	11.1	2.84 µM	11.5 µM	1.97 µM	16.2 µM	3.48 µM	15.8 µM	2.93 µM	9.24
CC(C)Cc1ccc(C(C)C(=O)NCc2ccc(Cn3c(=O)sn(CCCI)c3=O)cc2)cc1 (centres undefined)	0.453 µM	1.38 µM	0.308 µM	1.56 µM	1.46 µM	2.92	0.233 µM	0.633	0.558 µM	1.96 µM	0.511 µM	> 28.3	1.56 µM	3.25 µM	0.364 µM	> 100 µM	0.485 µM	1.77 µM	1.36 µM	3.08
C=C1C(=O)O[C@H]2[C@H]1CC/C(CNC(=O)/C=C/c1ccccc1F)=C\CC[C@@]1(C)O[C@@H]21	1.69 µM	4.65 µM	1.62 µM	4.13 µM	1.89 µM	5.95	1.12 µM	2.53	2.18 µM	8.29 µM	1.55 µM	4.86	4.4 µM	17.3 µM	0.482 µM	6.88 µM	1.5 µM	6.34 µM	2.36 µM	6.19
COC(=O)c1oc2c(C(=O)/C=C/c3ccc(OC)cc3)c(OCCN3CCOCC3)ccc2c1C	1.85 µM	4.55 µM	1.54 µM	5.48 µM	1.87 µM	7.49	1.73 µM	3.62	1.83 µM	6.77 µM	1.24 µM	3.72	1.77 µM	3.78 µM	0.287 µM	1.29 µM	2.37 µM	7.34 µM	1.91 µM	4.75
CN1C(=O)C2(c3ccccc31)C1CC3C(CO1)C1C2C3(CO)CN1C#N (centres undefined)	–	> 100 µM	–	> 100 µM	–	> 100	–	> 100	–	> 100 µM	–	> 100	–	> 100 µM	–	> 100 µM	–	> 100 µM	–	> 100
NC(N)=Nc1ccc(/C=C2\C=Cc3ccccc32)cc1	2.02 µM	5.12 µM	1.44 µM	4.6 µM	4.74 µM	22.2	1.91 µM	3.56	2.22 µM	8.99 µM	2.41 µM	5.22	1.85 µM	3.51 µM	2.5 µM	6.85 µM	1.84 µM	3.92 µM	2.01 µM	4.51
N#Cc1c(N/N=C\c2ccc(Cl)cc2)nc(N)nc1N1CCOCC1	26 µM	97.4 µM	36.3 µM	> 100 µM	93.9 µM	> 100	23.1 µM	92.6	57.3 µM	> 100 µM	13.6 µM	34.4	36.1 µM	> 100 µM	11.7 µM	28.9 µM	35 µM	> 100 µM	87.7 µM	> 100
Cc1ccccc1C(C(=O)NC1CCCCC1)N(C(=O)CNc1ccc(C#N)cc1)c1cccc(F)c1 (centres undefined)	25 µM	> 100 µM	8.65 µM	28.7 µM	42.5 µM	> 100	11.7 µM	> 100	1.38 µM	8.97 µM	> 100 µM	> 100	> 100 µM	> 100 µM	16.9 µM	92.2 µM	> 72.4 µM	> 100 µM	34.4 µM	> 100
